Consider twelve molecules from PMC9386811 (ACS Omega, 2022).

Usually IC50 stands for the concentration needed to halve the response being measured.

For the assay, the target named is alpha-glucosidase from Saccharomyces cerevisiae (Baker's yeast) (Saccharomyces cerevisiae, UniProt P53341). Put plainly: In vitro α-glucosidase inhibitory activity. It counts as biochemical.
Sequence of alpha-glucosidase from Saccharomyces cerevisiae (Baker's yeast) (P53341 whole entry): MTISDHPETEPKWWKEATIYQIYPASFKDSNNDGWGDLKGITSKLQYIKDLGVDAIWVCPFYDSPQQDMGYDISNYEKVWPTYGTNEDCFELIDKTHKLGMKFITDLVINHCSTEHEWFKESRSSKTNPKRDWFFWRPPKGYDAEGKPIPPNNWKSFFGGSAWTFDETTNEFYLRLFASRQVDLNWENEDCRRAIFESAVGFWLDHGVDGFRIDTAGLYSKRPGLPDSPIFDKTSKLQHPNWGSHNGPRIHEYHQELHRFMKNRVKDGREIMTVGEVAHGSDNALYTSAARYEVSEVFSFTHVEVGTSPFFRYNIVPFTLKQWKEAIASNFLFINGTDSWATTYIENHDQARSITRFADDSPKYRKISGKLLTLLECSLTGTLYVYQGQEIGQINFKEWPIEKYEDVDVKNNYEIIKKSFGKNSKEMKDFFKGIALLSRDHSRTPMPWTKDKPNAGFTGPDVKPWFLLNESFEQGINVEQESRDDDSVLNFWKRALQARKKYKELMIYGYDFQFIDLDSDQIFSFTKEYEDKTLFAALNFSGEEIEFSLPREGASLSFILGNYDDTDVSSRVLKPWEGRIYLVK
`CCCCCCSc1nc2ccccc2n1CC(=O)NN1C(=O)CSC1c1ccc([N+](=O)[O-])cc1` (stereo not drawn) [Compound 5, 2-[2-(Hexylthio)-1H-benzo[d]imidazole-1-yl]-N-[2-(4-nitrophenyl)-4-oxothiazolidin-3-yl]acetamide] had an IC50 of 5.22 ± 0.14 µM. With `CCCCCCSc1nc2ccccc2n1CC(=O)NN1C(=O)CSC1c1ccc(C=O)cc1` (stereo not drawn) [Compound 8, 2-[2-(Hexylthio)-1H-benzo[d]imidazole-1-yl]-N-[2-(4-formylphenyl)-4-oxothiazolidin-3-yl]acetamide], the half-maximal inhibitory concentration (IC50) is 5.69 ± 0.1 µM. Next, `CCCCCCSc1nc2ccccc2n1CC(=O)NN1C(=O)CSC1c1cccc(OC)c1O` (stereo not drawn) [Compound 11, 2-[2-(Hexylthio)-1H-benzo[d]imidazole-1-yl]-N-[-2-(2-hydroxy-3-methoxyphenyl)-4-oxothiazolidin-3-yl]acetamide]: 24.1 ± 0.3 µM.

In the case of `CCCCCCSc1nc2ccccc2n1CC(=O)NN1C(=O)CSC1c1ccc(Cl)cc1Cl` (stereo not drawn) [Compound 12, 2-[2-(Hexylthio)-1H-benzo[d]imidazole-1-yl]-N-[2-(2,4-dichlorophenyl)-4-oxothiazolidin-3-yl]acetamide], the IC50 stood at 33.4 ± 0.38 µM. The molecule `CCCCCCSc1nc2ccccc2n1CC(=O)NN1C(=O)CSC1c1ccc(O)c(OC)c1` (stereo not drawn) [Compound 14, 2-[2-(Hexylthio)-1H-benzo[d]imidazole-1-yl]-N-[2-(4-hydroxy-3-methoxyphenyl)-4-oxothiazolidin-3-yl]acetamide] returned an IC50 of 10.2 ± 0.12 µM.

`CCCCCCSc1nc2ccccc2n1CC(=O)NN1C(=O)CSC1c1ccccc1OC` (stereo not drawn) [Compound 15, 2-[2-(Hexylthio)-1H-benzo[d]imidazole-1-yl]-N-[2-(2-methoxyphenyl)-4-oxothiazolidin-3-yl]acetamide] had an IC50 of 89.28 ± 0.52 µM. With `CCCCCCSc1nc2ccccc2n1CC(=O)NN1C(=O)CSC1c1ccc(OC)cc1` (stereo not drawn) [Compound 17, 2-[2-(Hexylthio)-1H-benzo[d]imidazole-1-yl]-N-[2-(4-methoxyphenyl)-4-oxothiazolidin-3-yl]acetamide], inhibition was half-maximal at 63.68 ± 0.52 µM (IC50). For the molecule `CCCCCCSc1nc2ccccc2n1CC(=O)NN1C(=O)CSC1c1ccc(C)o1` (stereo not drawn) [Compound 19, 2-[2-(Hexylthio)-1H-benzo[d]imidazole-1-yl]-N-[2-(5-methylfuran-2-yl)-4-oxothiazolidin-3-yl]acetamide], half-maximal inhibition (IC50) required 39.06 ± 0.27 µM. As for `CCCCCCSc1nc2ccccc2n1CC(=O)NN1C(=O)CSC1c1cccs1` (stereo not drawn) [Compound 21, 2-[2-(Hexylthio)-1H-benzo[d]imidazole-1-yl]-N-[4-oxo-2-(thiophen-2-yl)-thiazolidin-3-yl]acetamide], half-maximal inhibition (IC50) required 54.4 ± 0.65 µM. For `CCCCCCSc1nc2ccccc2n1CC(=O)NN1C(=O)CSC1c1ccc2ccccc2c1` (stereo not drawn) [Compound 22, 2-[2-(Hexylthio)-1H-benzo[d]imidazole-1-yl]-N-[2-(naphthalen-2-yl)-4-oxothiazolidin-3-yl]acetamide], half-maximal inhibition (IC50) was put at 41 ± 0.36 µM. Molecule `CCCCCCSc1nc2ccccc2n1CC(=O)NN1C(=O)CSC1c1ccc(F)cc1` (stereo not drawn) [Compound 23, 2-[2-(Hexylthio)-1H-benzo[d]imidazole-1-yl]-N-[2-(4-fluorophenyl)-4-oxothiazolidin-3-yl]acetamide] displayed an IC50 of 26.38 ± 0.18 µM.

For the molecule `CCCCCCSc1nc2ccccc2n1CC(=O)NN1C(=O)CSC1c1ccc(C)cc1` (stereo not drawn) [Compound 24, 2-[2-(Hexylthio)-1H-benzo[d]imidazole-1-yl)-N-[4-oxo-2-(p-tolyl)thiazolidin-3-yl]acetamide], the IC50 came to 23.7 ± 0.25 µM.
